Target: T1, Inhibitor of nuclear factor kappa-B kinase subunit beta (Homo sapiens, UniProt O14920)
T1 sequence (O14920 whole entry): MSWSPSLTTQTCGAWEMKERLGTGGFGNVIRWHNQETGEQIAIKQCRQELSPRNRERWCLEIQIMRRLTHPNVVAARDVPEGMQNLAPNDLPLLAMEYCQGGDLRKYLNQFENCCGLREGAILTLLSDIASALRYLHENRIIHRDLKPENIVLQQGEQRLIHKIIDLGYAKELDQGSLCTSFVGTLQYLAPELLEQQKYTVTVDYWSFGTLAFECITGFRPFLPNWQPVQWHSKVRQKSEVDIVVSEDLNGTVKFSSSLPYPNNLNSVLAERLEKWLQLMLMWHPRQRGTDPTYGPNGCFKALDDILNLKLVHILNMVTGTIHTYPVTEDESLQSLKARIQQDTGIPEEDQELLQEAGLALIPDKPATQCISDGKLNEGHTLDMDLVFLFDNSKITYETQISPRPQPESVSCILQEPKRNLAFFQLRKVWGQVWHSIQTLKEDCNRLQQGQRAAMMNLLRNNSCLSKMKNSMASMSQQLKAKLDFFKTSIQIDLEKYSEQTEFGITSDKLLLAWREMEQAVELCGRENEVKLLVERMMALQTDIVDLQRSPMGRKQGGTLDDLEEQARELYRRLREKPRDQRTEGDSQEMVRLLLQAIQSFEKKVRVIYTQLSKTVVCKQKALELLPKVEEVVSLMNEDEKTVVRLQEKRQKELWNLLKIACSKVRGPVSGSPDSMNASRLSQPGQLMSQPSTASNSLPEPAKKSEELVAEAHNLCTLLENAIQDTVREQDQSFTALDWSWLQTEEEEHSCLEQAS
Experiment: Inhibition of IKK-beta after 30 mins

IC50: 400 nM
SMILES: Cc1cc(-c2c3ccccc3c(Br)c3sc(C)c(C)c23)cc(C)c1O[C@H](Cc1ccccc1)C(=O)O [ERTIPROTAFIB]

From ChEMBL document CHEMBL1147956 (Bioorg Med Chem Lett, 2007)
